# Laboratory results: patent US20090215717A1, “Sulfated oligosaccharides” (Ivax Drug Research Institute Ltd., priority 2004, published 2009)
# Structures can show the parent of a compound that is named as a salt. Where two headings read alike, the source gives them in different places.
# Key:
# BN rats [1] = assay: Perivascular oedema in asthmatic lung tissue (Model 3); format: in vivo, rat; details: for Oedema: area of oedema relative to area of vasculature (average ± SEM): lungs 48 h after challenge, challenge 224 ± 17, control 71 ± 7
# Experimental: Sensitized BN rats were treated intratracheally with 0.01 and 1.0 mg/kg dose of compound of formula (IIA), two hours before antigenic challenge, using a similar protocol described in Model 1. Lungs were collected 48 hours after challenge and were fixed in 8% phosphate buffered formaldehyde. Samples were then processed for histochemistry routinely. […] thick sections were stained with periodic-acid-Schiff (PAS) reagents and were counterstained with haematoxylin-eosine. On the sections the areas of the connective tissue around the vasculare were determined and expressed as a ratio of the area of the corresponding blood vessel itself.
# BN rats [2] = assay: Allergen stimulated mucus production of airways epithelial cells, PAS(+) cell count (Model 2); format: in vivo, rat; details: for number of PAS(+) cells as percent of total number of cells (average ± SEM): lungs 48 h after challenge, challenge 27.6 ± 3.5, control 2.9 ± 0.9
# Experimental: Sensitized BN rats were treated intratracheally with 0.01 or 1.0 mg/kg dose of compound of formula (IIA), two hours before antigenic challenge, using a similar protocol described in Model 1. Lungs were collected 48 hours after challenge and were fixed in 8% phophospate buffered formaldehyde. Samples were then processed for histochemistry routinely. 5 μm thick sections were stained with periodic-acid-Schiff (PAS) reagents and were counterstained with haematoxylin-eosine. On the sections each epithelial cells of the airways were counted in the whole preparation at a magnification of 400×. The number of PAS(+) [mucus producing] epithelial cells was expressed as the ratio of the […] of epithelial cells.
# As it is shown in Table 2, allergen challenge stimulates the mucus production of airways epithelial cells (control vs. challenge).
# BN rats [3] = assay: Eosinophilia in bronchoalveolar lavage fluid (Model 4); format: in vivo, rat; details: for Eosinophil: eosinophil number/ml BALF (average ± SEM): BALF 48 h after challenge, challenge 1.00 ± 0.16, control 0.35 ± 0.04
# Experimental: Sensitized BN rats were treated intratracheally with 0.01 and 1.0 mg/kg dose of compound of formula (IIA); two hours before antigenic challenge, using a similar protocol described in Model 1. Bronchoalveolar lavage fluids (BALF) were collected 48 hours after challenge and after staining, the number of eosinophils were determined.
# As it is shown in Table 4, allergen challenge causes an increase in the number of eosinophils in the bronchioalveolar lavage.
# IP-3 receptor = biological target: T1, IP-3 receptor (Rattus norvegicus, UniProt P29994); assay: IP-3 receptor antagonistic effect, rat cerebellum membrane preparations (Model 5); format: binding; details: for IC50 Average ± SEM (n) / IC50: inhibition of IP-3 binding
# T1 construct: rat cerebellum membrane preparations; from tissue; host or cells: rat cerebellum (microsomal membrane preparation)
# Experimental: The sulfated oligosaccharides of the present invention, depending on their chemical structure, inhibit the binding of inositol-1,4,5-trisphophate […] to its receptor in microsomal membrane preparations. As IP-3 is a messenger molecule playing distinguished role in the activation of different cells, interfering with this function can explain the anti-asthmatic effect of these sulfated oligosaccharides.
# The IP-3 antagonist effect of the sulfated oligosaccharides was determined using rat cerebellum membrane preparations according to Worley et al. (JBC 262, 12132, 1987).
# Brown Norway (BN) rats = assay: Tracheal contraction to acetylcholine ex vivo after antigen challenge of ovalbumin-sensitized BN rats (Model 1); format: in vivo, rat; details: for MAX: contraction at maximal Ach concentration relative to control (mean ± SEM): placebo 220 ± 30, control 100 ± 0; for ED50: log M acetylcholine (Ach), causing 50% contraction relative to control (mean ± SEM): trachea 48 h post challenge, placebo 6.10 ± 0.30, control 5.16 ± 0.08
# Experimental: Examination of the effect of locally administered sulfated oligosaccharides on airways' hyper-responsiveness ex vivo.
# Brown Norway (BN) rats were actively sensitized to ovalbumin (OA) by a subcutaneous injection of 0.5 ml of OA/Al(OH)3 gel mixture (2 mg OA+10 g Al(OH)3/100 ml saline) on day 1 with subsequent subcutaneous injections (10 mg OA+10 g Al(OH)3/100 ml saline) given on days 14 and 21. On day 28, animals received the compound of formula (IIA) intratracheally (0.01 or 1.0 mg/kg dose) 2 hours before antigen challenge. Antigen challenge was performed by inhalation of nebulised ovalbumin (1% antigen solution administered in a TSE inhalation system for 1 hour). Animals were sacrificed 48 hours post antigen challenge wherein the tracheas were removed to an organ bath. Dissected tracheas were allowed to equilibrate for 30 minutes before measuring tracheal spasmogenic response curves to acetylcholine (Ach).
# As shown in Table 1 ovalbumin challenge of sensitized animals in this model caused a significant tracheal hyper-reactivity to acetylcholine, when the response to the spasmogenic agent was determined 48 h after antigen challenge.
# [4] = 0.01 mg/kg intratracheally 2 h before challenge
# [5] = 1.0 mg/kg intratracheally 2 h before challenge
# [6] = higher dose (1.0 mg/kg intratracheally)
# [7] = 0.01 mg/kg intratracheally 2 h before antigen challenge
# [8] = 1.0 mg/kg intratracheally 2 h before antigen challenge
# T1 sequence (P29994 whole entry): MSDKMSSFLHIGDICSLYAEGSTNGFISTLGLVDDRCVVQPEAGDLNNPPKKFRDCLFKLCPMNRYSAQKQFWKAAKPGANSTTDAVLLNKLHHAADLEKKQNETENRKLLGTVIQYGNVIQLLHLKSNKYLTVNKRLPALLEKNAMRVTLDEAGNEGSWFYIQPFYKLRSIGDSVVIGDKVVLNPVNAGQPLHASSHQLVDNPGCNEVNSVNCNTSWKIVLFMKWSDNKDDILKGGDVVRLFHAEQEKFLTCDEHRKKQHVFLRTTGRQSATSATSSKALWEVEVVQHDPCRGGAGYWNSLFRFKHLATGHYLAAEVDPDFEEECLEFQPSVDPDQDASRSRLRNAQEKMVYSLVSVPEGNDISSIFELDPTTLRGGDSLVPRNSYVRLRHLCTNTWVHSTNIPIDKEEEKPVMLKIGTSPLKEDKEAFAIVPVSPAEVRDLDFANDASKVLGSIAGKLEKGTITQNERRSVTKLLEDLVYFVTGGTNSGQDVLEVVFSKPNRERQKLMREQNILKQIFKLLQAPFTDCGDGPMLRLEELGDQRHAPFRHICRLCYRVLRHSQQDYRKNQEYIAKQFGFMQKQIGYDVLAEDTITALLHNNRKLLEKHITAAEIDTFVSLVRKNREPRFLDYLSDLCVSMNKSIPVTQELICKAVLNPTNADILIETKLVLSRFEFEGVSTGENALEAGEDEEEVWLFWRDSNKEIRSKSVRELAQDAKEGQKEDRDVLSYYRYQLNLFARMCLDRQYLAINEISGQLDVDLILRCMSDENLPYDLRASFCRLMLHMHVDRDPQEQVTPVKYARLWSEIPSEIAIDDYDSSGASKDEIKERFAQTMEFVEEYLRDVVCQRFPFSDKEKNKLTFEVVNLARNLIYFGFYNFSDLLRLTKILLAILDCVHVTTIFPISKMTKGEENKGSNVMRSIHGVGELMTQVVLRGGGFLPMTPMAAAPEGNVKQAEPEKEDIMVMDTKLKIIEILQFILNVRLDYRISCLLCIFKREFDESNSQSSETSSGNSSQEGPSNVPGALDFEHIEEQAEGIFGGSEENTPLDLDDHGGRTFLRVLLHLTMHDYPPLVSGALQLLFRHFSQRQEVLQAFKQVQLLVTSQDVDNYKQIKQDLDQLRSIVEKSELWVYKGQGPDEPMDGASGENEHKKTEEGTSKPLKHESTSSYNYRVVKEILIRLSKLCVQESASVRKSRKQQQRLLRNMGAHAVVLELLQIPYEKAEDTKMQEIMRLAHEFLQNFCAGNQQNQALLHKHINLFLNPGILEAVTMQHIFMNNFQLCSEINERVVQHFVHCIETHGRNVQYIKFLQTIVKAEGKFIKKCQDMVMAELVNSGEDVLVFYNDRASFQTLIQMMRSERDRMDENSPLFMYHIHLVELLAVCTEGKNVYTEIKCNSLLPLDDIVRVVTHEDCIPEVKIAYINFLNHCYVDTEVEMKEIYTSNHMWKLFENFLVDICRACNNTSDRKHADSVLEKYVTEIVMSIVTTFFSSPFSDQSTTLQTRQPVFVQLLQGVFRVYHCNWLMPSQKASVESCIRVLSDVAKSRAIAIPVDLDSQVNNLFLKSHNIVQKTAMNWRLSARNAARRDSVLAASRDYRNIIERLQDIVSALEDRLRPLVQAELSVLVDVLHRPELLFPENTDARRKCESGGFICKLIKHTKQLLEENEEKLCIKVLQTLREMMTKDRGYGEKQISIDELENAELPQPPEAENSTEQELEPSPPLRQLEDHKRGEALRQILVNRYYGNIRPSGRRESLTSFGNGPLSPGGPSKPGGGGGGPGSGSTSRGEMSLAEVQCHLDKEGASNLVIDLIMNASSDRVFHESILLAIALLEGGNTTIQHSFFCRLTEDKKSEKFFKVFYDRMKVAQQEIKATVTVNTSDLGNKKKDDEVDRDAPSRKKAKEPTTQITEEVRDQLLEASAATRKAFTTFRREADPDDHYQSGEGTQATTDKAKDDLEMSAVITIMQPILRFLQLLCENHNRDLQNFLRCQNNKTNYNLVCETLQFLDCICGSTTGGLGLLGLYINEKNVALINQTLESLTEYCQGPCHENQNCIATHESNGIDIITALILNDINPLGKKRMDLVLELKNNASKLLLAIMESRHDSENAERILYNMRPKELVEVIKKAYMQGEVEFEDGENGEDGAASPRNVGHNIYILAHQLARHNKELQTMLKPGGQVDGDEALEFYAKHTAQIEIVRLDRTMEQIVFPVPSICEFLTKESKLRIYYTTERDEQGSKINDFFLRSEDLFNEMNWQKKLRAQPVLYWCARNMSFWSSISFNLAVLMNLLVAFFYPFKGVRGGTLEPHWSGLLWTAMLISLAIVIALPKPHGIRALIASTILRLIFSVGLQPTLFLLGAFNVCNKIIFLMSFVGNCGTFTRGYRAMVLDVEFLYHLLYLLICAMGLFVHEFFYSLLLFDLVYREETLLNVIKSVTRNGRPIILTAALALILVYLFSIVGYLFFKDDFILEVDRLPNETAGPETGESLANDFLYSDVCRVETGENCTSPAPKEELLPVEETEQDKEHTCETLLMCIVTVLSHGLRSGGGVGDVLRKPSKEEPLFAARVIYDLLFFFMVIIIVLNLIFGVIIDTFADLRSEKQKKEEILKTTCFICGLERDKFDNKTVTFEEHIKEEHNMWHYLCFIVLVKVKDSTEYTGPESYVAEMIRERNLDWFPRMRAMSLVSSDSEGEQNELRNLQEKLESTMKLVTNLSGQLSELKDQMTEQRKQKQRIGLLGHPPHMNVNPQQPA
IC50 (IP-3 receptor; read-out: Average IC50),IC50 (IP-3 receptor; read-out: IC50 Average ± SEM (n) (converted)),SMILES,Oedema: area of oedema relative to area of vasculature (average ± SEM) (BN rats [1]; [4]),Oedema: area of oedema relative to area of vasculature (average ± SEM) (BN rats [1]; [5]),effect on extent of oedema around the vasculature (in words) (BN rats [1]; [6]),"effect on number of PAS(+), mucus producing cells (in words) (BN rats [2]; 0.01 mg/kg intratracheally)",number of PAS(+) cells as percent of total number of cells (average ± SEM) (BN rats [2]; [4]),number of PAS(+) cells as percent of total number of cells (average ± SEM) (BN rats [2]; [5]),"effect on number of PAS(+), mucus producing cells (in words) (BN rats [2]; [6])",Eosinophil: eosinophil number/ml BALF (average ± SEM) (BN rats [3]; [4]),Eosinophil: eosinophil number/ml BALF (average ± SEM) (BN rats [3]; [5]),effect on number of eosinophils in the bronchioalveolar lavage (in words) (BN rats [3]; higher doses (1.0 mg/kg intratracheally)),effect on number of eosinophils in the bronchioalveolar lavage (in words) (BN rats [3]; smallest dose (0.01 mg/kg intratracheally)),IP-3 antagonist activity (in words) (IP-3 receptor),IC50 Average ± SEM (n) (IP-3 receptor),MAX: contraction at maximal Ach concentration relative to control (mean ± SEM) (Brown Norway (BN) rats; [7]),"ED50: log M acetylcholine (Ach), causing 50% contraction relative to control (mean ± SEM) (Brown Norway (BN) rats; [7])",MAX: contraction at maximal Ach concentration relative to control (mean ± SEM) (Brown Norway (BN) rats; [8]),"ED50: log M acetylcholine (Ach), causing 50% contraction relative to control (mean ± SEM) (Brown Norway (BN) rats; [8])",effect on tracheal hyper-reactivity to acetylcholine (in words) (Brown Norway (BN) rats; both applied doses (0.01 and 1.0 mg/kg intratracheally))
194 nM,244 nM,"O=S(=O)(O)OC[C@H]1O[C@H](O[C@H]2O[C@H](COS(=O)(=O)O)[C@@H](OS(=O)(=O)O)[C@H](OS(=O)(=O)O)[C@H]2OS(=O)(=O)O)[C@H](OS(=O)(=O)O)[C@@H](OS(=O)(=O)O)[C@@H]1OS(=O)(=O)O [IIB, trehalose octasulfate octa potassium salt]",,,,,,,,,,,,,,,,,,
238 nM,,"O=S(=O)([O-])OC[C@H]1O[C@H](OC[C@H]2O[C@H](O[C@]3(COS(=O)(=O)[O-])O[C@H](COS(=O)(=O)[O-])[C@@H](OS(=O)(=O)[O-])[C@@H]3OS(=O)(=O)[O-])[C@H](OS(=O)(=O)[O-])[C@@H](OS(=O)(=O)[O-])[C@@H]2OS(=O)(=O)[O-])[C@H](OS(=O)(=O)[O-])[C@@H](OS(=O)(=O)[O-])[C@H]1OS(=O)(=O)[O-].[K+].[K+].[K+].[K+].[K+].[K+].[K+].[K+].[K+].[K+].[K+] [IIC, raffinose undecasulfate undeca potassium salt]",,,,,,,,,,,,significant IP-3 antagonist activity,0.43 ± 0.05 (3) μg/ml,,,,,

SMILES,IC50 (IP-3 receptor; read-out: Average IC50),IC50 (IP-3 receptor; read-out: IC50 Average ± SEM (n) (converted)),Oedema: area of oedema relative to area of vasculature (average ± SEM) (BN rats [1]; [4]),Oedema: area of oedema relative to area of vasculature (average ± SEM) (BN rats [1]; [5]),effect on extent of oedema around the vasculature (in words) (BN rats [1]; [6]),"effect on number of PAS(+), mucus producing cells (in words) (BN rats [2]; 0.01 mg/kg intratracheally)",number of PAS(+) cells as percent of total number of cells (average ± SEM) (BN rats [2]; [4]),number of PAS(+) cells as percent of total number of cells (average ± SEM) (BN rats [2]; [5]),"effect on number of PAS(+), mucus producing cells (in words) (BN rats [2]; [6])",Eosinophil: eosinophil number/ml BALF (average ± SEM) (BN rats [3]; [4]),Eosinophil: eosinophil number/ml BALF (average ± SEM) (BN rats [3]; [5]),effect on number of eosinophils in the bronchioalveolar lavage (in words) (BN rats [3]; higher doses (1.0 mg/kg intratracheally)),effect on number of eosinophils in the bronchioalveolar lavage (in words) (BN rats [3]; smallest dose (0.01 mg/kg intratracheally)),IP-3 antagonist activity (in words) (IP-3 receptor),IC50 Average ± SEM (n) (IP-3 receptor),MAX: contraction at maximal Ach concentration relative to control (mean ± SEM) (Brown Norway (BN) rats; [7]),"ED50: log M acetylcholine (Ach), causing 50% contraction relative to control (mean ± SEM) (Brown Norway (BN) rats; [7])",MAX: contraction at maximal Ach concentration relative to control (mean ± SEM) (Brown Norway (BN) rats; [8]),"ED50: log M acetylcholine (Ach), causing 50% contraction relative to control (mean ± SEM) (Brown Norway (BN) rats; [8])",effect on tracheal hyper-reactivity to acetylcholine (in words) (Brown Norway (BN) rats; both applied doses (0.01 and 1.0 mg/kg intratracheally))
"O=S(=O)([O-])OC[C@H]1O[C@@](COS(=O)(=O)[O-])(O[C@H]2O[C@H](COS(=O)(=O)[O-])[C@@H](OS(=O)(=O)[O-])[C@H](OS(=O)(=O)[O-])[C@H]2OS(=O)(=O)[O-])[C@@H](OS(=O)(=O)[O-])[C@@H]1OS(=O)(=O)[O-].[Na+].[Na+].[Na+].[Na+].[Na+].[Na+].[Na+].[Na+] [IIA, sucrose octasulfate octa sodium salt]",208 nM,,177 ± 10,119 ± 7,significantly decreased,notably,19.2 ± 2.7%,7.3 ± 1.4%,statistically significantly decreased,0.89 ± 0.13 eosinophil number/ml BALF,0.70 ± 0.08 eosinophil number/ml BALF,the decrease become statistically significant,decreases the extent of it,significant IP-3 antagonist activity,0.26 ± 0.05 (4) μg/ml,167 ± 36,4.73 ± 0.50 log M,131 ± 22,4.98 ± 0.30 log M,notably decreased this elevation
